Assay type in all cases: physicochemical
The nature of series [1]: Total organic carbon (TOC) of the slurry, test of antioxidant deposition on CPE. Conditions: 60 minutes after addition of 0.5% antioxidant to the CPE slurry; 11.8 ppm before addition. The procedure:
In order to test that the antioxidant has actually deposited on the CPE, rather than on the reactor walls, the total organic carbon (TOC) of the slurry is measured, and a glass slide placed in the reactor during the test is investigated for deposition of antioxidant.

Series [2] can be described thus: Extension at break after roll milling, dry blending versus liquid-liquid addition of antioxidant. Particulars: with calcium stearate, epoxidized soja bean oil, titanium dioxide. The procedure:
In order to illustrate the advantages of liquid-liquid blending over dry blending, a sample of CPE containing 36% chlorine, having a density of 1.18 g/cm³, a weight average molecular weight of 2x10⁵ and a cristallinity of 0.5% is mixed in a food processor with 1% calcium stearate, 1% epoxidized soja bean oil and 0.5% titanium dioxide, based on the weight of the CPE. The mixture is formed into a sheet of 3 mm thickness on a roll mill at 190 °C, and its tensile properties are measured. The extension at break is a measure of the molecular weight of a polymer. The material breaks at 596% extension.
Another sample of the same material is milled for 15 minutes at 190 °C before a sheet of 3 mm thickness is formed.
The antioxidant IRGANOX 1076 (trademark) is added to the mixture as described above at an amount of 0.25% by the weight of the CPE using the food mixer. The resulting mixture is milled for 15 minutes. The extension at break of a sheet of 3 mm thickness, prepared as indicated above, is 740%, showing that the degree of chain scission is reduced by the addition of the antioxidant. (comparative run, but not State of the Art.)
To an aqueous slurry containing 16 % of the CPE, based on the total weight of the slurry, 0.25% IRGANOX 1076 (trademark), by the weight of CPE is added in the manner described in Example 1. The mixture is dried as described in Example 1. […]

Series [3] can be described thus: Thermal degradation (weight loss) by TGA at 180 °C in nitrogen purge. Particulars: TGA 180 °C, 60 minutes, 0.3% antioxidant added to CPE slurry heated to 80 °C for 90 minutes. As for the experimental part:
The thermal degradation (weight loss) of the following samples is measured by TGA at 180 °C (in a nitrogen purge during 60 minutes).

The structures appear in SMILES notation.

The values that follow come from EP0561516A1, “Process for stabilizing chlorinated polyethylene against degradation” (THE DOW CHEMICAL COMPANY, priority 1992, dated 1993).

As to `CCCCCCCCCCCCCCCCCCOC(=O)CCc1cc(C(C)(C)C)c(O)c(C(C)(C)C)c1` [IRGANOX 1076, Octadecyl 3,5-di-tert-butyl-4-hydroxyhydrocinnamate], the “total organic carbon (TOC) of the slurry” value in series [1] was 10.0 ppm. For the same compound, the extension at break in series [2] (0.25% antioxidant added to aqueous slurry with 16% CPE (method of the invention), 15 minutes milling) was determined as 704%; in series [2] (0.25% antioxidant dry-blended in food mixer (comparative run), milled 15 minutes at 190 °C, sheet of 3 mm), 740%.

On to `Cc1cc(CCC(=O)OCCOCCOCCOC(=O)CCc2cc(C)c(O)c(C(C)(C)C)c2)cc(C(C)(C)C)c1O` [IRGANOX 245, triethylene glycol bis [3-tert-butyl-4-hydroxy-5-methylphenyl]propionate], for which the “thermal degradation (weight loss)” value in series [3] is 75 ppm/min.
